Tests used:
androgen receptor (AR) = molecular target: T1, androgen receptor (AR) (Homo sapiens, UniProt P10275); conditions: SH-SY5Y cells, 1f-pGI3 + pSG5AR, FIG. 8 and FIG. 10
T1 sequence (P10275 1-920): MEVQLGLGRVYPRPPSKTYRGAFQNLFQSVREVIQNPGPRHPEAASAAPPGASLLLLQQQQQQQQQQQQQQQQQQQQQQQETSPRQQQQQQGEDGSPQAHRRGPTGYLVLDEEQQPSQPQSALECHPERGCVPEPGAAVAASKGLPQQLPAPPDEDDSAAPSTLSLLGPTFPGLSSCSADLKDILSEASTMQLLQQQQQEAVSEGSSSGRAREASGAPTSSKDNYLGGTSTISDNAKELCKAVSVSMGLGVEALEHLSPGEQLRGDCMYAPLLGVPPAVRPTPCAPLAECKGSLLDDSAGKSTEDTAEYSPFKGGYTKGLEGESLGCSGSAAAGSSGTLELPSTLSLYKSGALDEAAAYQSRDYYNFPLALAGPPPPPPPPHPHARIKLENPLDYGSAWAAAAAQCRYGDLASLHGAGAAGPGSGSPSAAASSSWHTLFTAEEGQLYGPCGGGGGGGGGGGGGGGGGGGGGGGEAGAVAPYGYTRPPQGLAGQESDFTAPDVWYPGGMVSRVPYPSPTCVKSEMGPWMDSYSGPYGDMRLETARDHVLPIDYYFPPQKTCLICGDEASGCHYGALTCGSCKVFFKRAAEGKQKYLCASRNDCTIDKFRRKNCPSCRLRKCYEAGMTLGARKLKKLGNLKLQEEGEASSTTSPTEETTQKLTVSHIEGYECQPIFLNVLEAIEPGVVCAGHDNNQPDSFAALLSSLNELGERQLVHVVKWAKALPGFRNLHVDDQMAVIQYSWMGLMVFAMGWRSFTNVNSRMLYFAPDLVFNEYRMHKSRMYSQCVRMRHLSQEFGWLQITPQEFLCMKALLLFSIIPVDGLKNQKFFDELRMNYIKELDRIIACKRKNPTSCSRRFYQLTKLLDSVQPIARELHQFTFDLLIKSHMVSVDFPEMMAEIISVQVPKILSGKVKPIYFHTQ

male sexual behaviour = conditions: in comparison with testosterone; Arteaga-Silva et al. 2005; cited from earlier work
prostate = conditions: Arteaga-Silva et al. 2005; cited from earlier work

Compound | induction of reporter gene expression on the 1f-promoter (androgen receptor (AR)) | action on male sexual behaviour (male sexual behaviour) | androgenic action on the prostate (prostate)
CCC(=O)O[C@H]1CC[C@H]2[C@@H]3CCC4=CC(=O)CC[C@]4(C)[C@H]3CC[C@]12C [testosterone propionate] | very potent stimulation | – | –
C[C@]12CCC(=O)C[C@@H]1CC[C@@H]1[C@@H]2CC[C@]2(C)[C@@H](O)CC[C@@H]12 [DHT, dihydrotestosterone] | – | considerably less action | very strong androgen
